This test has as its target T1, Vitamin D3 receptor (Homo sapiens) (UniProt P11473).
T1 sequence (whole entry): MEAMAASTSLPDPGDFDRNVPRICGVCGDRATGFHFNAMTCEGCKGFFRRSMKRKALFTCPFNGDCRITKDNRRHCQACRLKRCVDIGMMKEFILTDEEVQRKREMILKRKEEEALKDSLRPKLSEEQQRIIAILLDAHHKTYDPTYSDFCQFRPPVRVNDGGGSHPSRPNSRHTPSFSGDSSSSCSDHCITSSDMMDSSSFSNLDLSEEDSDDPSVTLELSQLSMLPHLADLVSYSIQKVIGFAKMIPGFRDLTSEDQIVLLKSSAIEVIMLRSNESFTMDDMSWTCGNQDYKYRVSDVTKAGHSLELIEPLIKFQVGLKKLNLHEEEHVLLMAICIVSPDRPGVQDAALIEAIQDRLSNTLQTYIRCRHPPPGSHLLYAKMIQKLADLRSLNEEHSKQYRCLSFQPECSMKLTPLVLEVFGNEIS
In words: Induction of vitamin D receptor-mediated differentiation of human HL60 cells at 10^-6 M by NBT reduction method. The format is cell-based. The settings on record: HL-60.

The source made the active and inactive calls. The calls are words filed in the database; no cut-off is given here.

As to `CCC(O)(CC)CCCCC12CCC(COCCC(O)CCO)(CC1)CC2` (stereo unspecified), the outcome was Active.
